Source: paper PMC10619133, “The catechol moiety of obafluorin is essential for antibacterial activity” (RSC Chemical Biology, 2023)

Assay: Hydrolysis of the β-lactone in HEPES buffer monitored by HPLC
Assay type: physicochemical
Conditions: for hydrolysis of β-lactone (in words): 30 min, no Fe^3+
Protocol: Hydrolysis of 1–4 was analysed on an Agilent 1290 system fitted with an Agilent LC/MSD MS spectrometer. A Kinetex XB-C18, 100 × 4.6 mm, 5 μM column (Phenomenex) was used with a gradient elution: ACN/0.1% (v/v) FA (H2O) gradient from 5/95 for 0–0.5 min, 5/95 to 98/2 0.5–12 min, 98/2 for 12–13 min, gradient to 5/95 13–13.5 min and 5/95 for 13.5–15 min. The flow rate was 0.6 mL min^−1 and the injection volume of each sample 5 μL. DAD signals were analysed at 270 nm, with a bandwidth of 4 nm. MS were recorded in positive mode using an atmospheric pressure ionisation electrospray (API-ES) ion source with a capillary voltage of 3000 V. The drying gas temperature was 350 °C with a flow rate of 12 L min^−1. The scan parameters were: mass range = 200–1500; fragmentor = 70; gain EMV = 1.0; threshold = 150; step-size = 0.10. Data were analysed with Agilent ChemStation software.
Five solutions of HEPES buffer (111 mM) were prepared at pH 6.0, 6.5, 7.0, 7.5 and 8.0 respectively. A further five solution of HEPES buffer (111 mM) with Fe(NO3)3.9H2O ([…]) were also prepared at pH 6.0, 6.5, 7.0, 7.5, 8.0 respectively. Stock solutions of 1–4 (10 mM) were prepared in DMSO. For each hydrolysis experiment, stock solution of 1–4 (10 μL) was added the HEPES buffer (90 μL) or the HEPES + Fe(NO3)3.9H2O buffer (90 μL), to give final concentrations of HEPES (100 mM), 1–4 (1 mM) and Fe^3+ (0 or 1 mM). The reaction mixtures were shaken using a bench top vortex and left to stand for 30 min, after which the samples were analysed by HPLC using the Analytical HPLC method. All stock solutions of 1–4 were tested at every pH, with and without Fe^3+ and all experiments were repeated in triplicate.

In the case of `O=C(N[C@@H]1C(=O)O[C@@H]1Cc1ccc([N+](=O)[O-])cc1)c1cccc(O)c1O` [compound 1, Obafluorin], the “effect of added Fe^3+ on hydrolysis (in words)” value (Fe^3+ 1 mM, HEPES 100 mM, pH 6.0–8.0, 30 min) is reported as “protected 1 against hydrolysis at all pH values”, the “hydrolysis of β-lactone (in words)” value (pH 6.0, HEPES 100 mM) is reported as “little change” and the “hydrolysis of β-lactone (in words)” value (pH 8.0, HEPES 100 mM) is reported as “majority of 1 in the hydrolysed form”.
